Assay results as given in US11786492B2, “Therapeutic agent for phosphodiesterase inhibition and its related disorders” (Novalead Pharma Inc, priority 2017, dated 2023).
Marks after values point to notes of the source that are not given here.

Legend:
PDE7A = PDE7A (Homo sapiens, UniProt Q13946); experiment: Fluorescence polarization assay PDE7A; format: biochemical; details: substrate cAMP
Description: (§1) An experiment to check inhibition of various subtypes of the target Phosphodiesterase (PDE) enzyme in in-vitro assay was performed. […] PDE1A, PDE2A, PDE4A, PDE4B, PDE4C, PDE4D, PDE5A, PDE7A, PDE9A, PDE10A.

PDE4B = PDE4B (Homo sapiens, UniProt Q07343); experiment: Fluorescence polarization assay PDE4B; format: biochemical; details: substrate cAMP
PDE4B, sequence (Q07343 whole entry, species assumed): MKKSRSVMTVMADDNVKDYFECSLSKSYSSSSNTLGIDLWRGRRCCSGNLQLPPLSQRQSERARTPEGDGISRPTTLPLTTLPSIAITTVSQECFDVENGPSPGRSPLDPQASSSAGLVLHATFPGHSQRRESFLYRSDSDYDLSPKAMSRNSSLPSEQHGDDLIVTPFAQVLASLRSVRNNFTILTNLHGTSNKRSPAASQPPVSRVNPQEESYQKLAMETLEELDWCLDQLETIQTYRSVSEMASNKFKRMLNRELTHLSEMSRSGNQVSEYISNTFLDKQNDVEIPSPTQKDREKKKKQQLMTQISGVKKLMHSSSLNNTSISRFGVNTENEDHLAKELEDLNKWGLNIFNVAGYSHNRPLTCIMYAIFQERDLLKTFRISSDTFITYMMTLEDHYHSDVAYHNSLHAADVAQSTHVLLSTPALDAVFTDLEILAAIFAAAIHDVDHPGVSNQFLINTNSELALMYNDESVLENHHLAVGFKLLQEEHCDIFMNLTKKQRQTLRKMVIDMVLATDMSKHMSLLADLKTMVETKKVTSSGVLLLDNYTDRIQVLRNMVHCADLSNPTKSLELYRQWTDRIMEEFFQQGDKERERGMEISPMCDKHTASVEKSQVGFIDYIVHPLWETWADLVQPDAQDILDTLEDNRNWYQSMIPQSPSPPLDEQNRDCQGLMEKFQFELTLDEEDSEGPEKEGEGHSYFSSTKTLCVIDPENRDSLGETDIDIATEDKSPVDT
Description: as §1

PDE5A = PDE5A (Homo sapiens, UniProt O76074); experiment: Fluorescence polarization assay PDE5A; format: biochemical; details: substrate cGMP
Description: as §1

Human TNF-α = experiment: TNF-α release from stimulated PBMCs, ELISA; format: cell-based; details: LPS 100 ng/mL, 18 hrs
Description: (§2) Fresh human blood from healthy volunteer was collected in anticoagulant (5 mM) ethylene diamine tetra acetic acid (EDTA) containing tubes. The growth medium used was RPMI-1640 medium (with 3% FBS) and incubated at 37° C. for 60 mins in a 5% CO2 incubator with vehicle used as 1% DMSO. The cell viability was checked at various time points using Alamar blue and fluorescence readings were taken at excitation of 544 nm and emission of 590 nm.
(§3) PBMCs were stimulated with different stimulators as follows: • a. Cells were exposed to stimulator LPS at 100 ng/mL for 18 hrs to stimulate TNF-α, IL-6, IFN-γ, IL10, IL-1β • b. Cells were exposed to stimulator IFN-γ+LPS at 100 ng/mL+1 μg/mL for 18 hrs to stimulate IL-12 • c. Cells were exposed to stimulator PMA+Ionomycin at 50 ng/mL+1 μg/mL for 18 hrs to stimulate IL-23, IL-22, IL-17A, IL-17F
(§4) After 18 hrs supernatants were collected and centrifuged to remove any cell debris and aliquots were used for ELISA.

Human IL-22 = experiment: IL-22 release from stimulated PBMCs, ELISA; format: cell-based; details: PMA+Ionomycin, 18 hrs
Description: as §2, §3, §4

PDE4C = PDE4C (Homo sapiens, UniProt Q08493); experiment: Fluorescence polarization assay PDE4C; format: biochemical; details: substrate cAMP
PDE4C, sequence (Q08493 whole entry, species assumed): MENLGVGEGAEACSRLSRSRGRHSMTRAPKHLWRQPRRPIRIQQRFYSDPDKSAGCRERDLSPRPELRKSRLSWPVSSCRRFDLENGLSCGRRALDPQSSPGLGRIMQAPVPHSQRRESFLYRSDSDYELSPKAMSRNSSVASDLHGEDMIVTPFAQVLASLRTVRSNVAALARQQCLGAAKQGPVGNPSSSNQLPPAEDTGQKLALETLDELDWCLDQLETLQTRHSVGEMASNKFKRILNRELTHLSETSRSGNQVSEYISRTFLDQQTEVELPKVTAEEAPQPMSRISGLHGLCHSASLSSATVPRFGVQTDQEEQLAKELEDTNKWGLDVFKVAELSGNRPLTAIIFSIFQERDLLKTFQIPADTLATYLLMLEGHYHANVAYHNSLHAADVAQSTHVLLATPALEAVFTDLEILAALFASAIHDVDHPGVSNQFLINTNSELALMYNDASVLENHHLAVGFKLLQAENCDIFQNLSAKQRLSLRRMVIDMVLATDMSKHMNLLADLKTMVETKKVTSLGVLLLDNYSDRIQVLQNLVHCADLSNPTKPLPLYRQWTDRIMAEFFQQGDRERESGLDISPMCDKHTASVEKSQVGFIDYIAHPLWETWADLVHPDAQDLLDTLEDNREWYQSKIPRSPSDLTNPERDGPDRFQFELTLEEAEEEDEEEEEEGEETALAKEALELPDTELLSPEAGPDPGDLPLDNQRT
Description: as §1

Human IFN-γ = experiment: IFN-γ release from stimulated PBMCs, ELISA; format: cell-based; details: LPS 100 ng/mL, 18 hrs
Description: as §2, §3, §4

[1] = system: Imiquimod induced psoriasis in BALB/c mice; experiment: Imiquimod induced psoriasis model in Balb/c mice; details: for % inhibition of Ear inflamn. / Histopathology Scores Epidermal Thickness / Histopathology Scores Hyperkeratosis / Histopathology Scores Rete Peg Prolifern. / PASI score / Spleen weight / IL23 Levels (pg/ml): twice daily; for IL23 Levels (pg/ml): ear tissue lysate
Description: BALB/c mice (Sex: Female, Age: 7-8 Weeks) were used for induction of psoriasis using IMQ. Topical application of imiquimod (IMQ) in mice can induce and exacerbate psoriasis closely resembling human psoriasis. […] 3%, 4% and 5% and positive control of Tenovate (Clobetasol) 0.05% cream. In all 63 mg cream containing 5% of IMQ was applied to dorsal area (shaved back) and right ear for 8 days. Topical formulations from Example 7 were used during this experiment.
The parameters investigated were ear thickness change, % inhibition of ear inflammation, Psoriatic Area Severity Index (PASI). Histopathology was performed of right ear and dorsal skin by H & E staining. The biomarker in this study was inflammatory cytokine IL-23 analyzed by ELISA obtained from tissue lysate of ear region where IMQ and doses were applied.

PDE3 (Human platelets) = target: T1, PDE3 (Human platelets) (Homo sapiens, UniProt Q14432); experiment: Radiolabeled enzyme assay PDE3; format: biochemical; details: read-out: % inhibition at 30 μM, 1.01 μM [3H]cAMP+cAMP
T1 construct: PDE3 (Human platelets); from tissue; host or cells: human platelets
T1 sequence (Q14432 whole entry): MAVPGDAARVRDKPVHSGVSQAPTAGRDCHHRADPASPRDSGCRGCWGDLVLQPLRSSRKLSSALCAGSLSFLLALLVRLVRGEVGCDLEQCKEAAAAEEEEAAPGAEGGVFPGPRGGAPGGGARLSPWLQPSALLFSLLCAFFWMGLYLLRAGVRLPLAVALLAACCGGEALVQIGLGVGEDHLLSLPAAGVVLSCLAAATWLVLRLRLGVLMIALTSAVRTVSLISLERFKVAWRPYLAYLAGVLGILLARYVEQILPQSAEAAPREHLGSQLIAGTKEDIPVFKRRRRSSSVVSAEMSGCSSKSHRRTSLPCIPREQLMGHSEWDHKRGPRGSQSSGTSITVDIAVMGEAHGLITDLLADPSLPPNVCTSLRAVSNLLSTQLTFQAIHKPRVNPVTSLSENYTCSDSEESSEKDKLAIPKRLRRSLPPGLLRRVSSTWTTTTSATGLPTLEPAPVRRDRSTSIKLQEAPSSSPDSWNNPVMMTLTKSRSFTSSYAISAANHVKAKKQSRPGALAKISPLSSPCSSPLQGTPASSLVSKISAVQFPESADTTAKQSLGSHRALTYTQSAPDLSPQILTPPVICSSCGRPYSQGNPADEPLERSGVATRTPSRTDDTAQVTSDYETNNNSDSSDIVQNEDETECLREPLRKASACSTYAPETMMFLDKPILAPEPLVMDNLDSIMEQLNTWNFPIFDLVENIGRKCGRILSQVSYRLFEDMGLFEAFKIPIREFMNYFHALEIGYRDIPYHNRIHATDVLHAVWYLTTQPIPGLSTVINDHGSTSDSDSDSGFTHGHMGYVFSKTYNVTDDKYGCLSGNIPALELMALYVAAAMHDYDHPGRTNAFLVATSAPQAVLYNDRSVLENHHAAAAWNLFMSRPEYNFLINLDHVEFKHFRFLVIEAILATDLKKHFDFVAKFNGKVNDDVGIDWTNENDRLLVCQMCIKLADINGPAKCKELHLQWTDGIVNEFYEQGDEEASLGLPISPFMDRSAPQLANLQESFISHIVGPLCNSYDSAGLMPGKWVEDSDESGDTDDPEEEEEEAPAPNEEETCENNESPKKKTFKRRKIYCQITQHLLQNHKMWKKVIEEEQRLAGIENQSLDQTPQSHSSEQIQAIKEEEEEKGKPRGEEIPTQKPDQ
Description: (§5) Enzyme assays have been optimized for incubation time, substrate concentration and method of end-product determination.

PDE1 (Bovine brain) = experiment: Radiolabeled enzyme assay PDE1; format: biochemical; details: 1.01 μM [3H]cAMP+cAMP
Description: as §5

PDE4 (Human U937 cells) = experiment: Radiolabeled enzyme assay PDE4; format: biochemical; details: 1.01 μM [3H]cAMP+cAMP
Description: as §5

PDE5 (Human platelets) = target: T2, PDE5 (Human platelets) (Homo sapiens, UniProt O76074); experiment: Radiolabeled enzyme assay PDE5; format: biochemical; details: read-out: % inhibition at 30 μM, 1.01 μM [3H]cGMP+cGMP
T2 construct: PDE5 (Human platelets); from tissue; host or cells: human platelets
Description: as §5

PDE2 (Human platelets) = target: T3, PDE2 (Human platelets) (Homo sapiens, UniProt O00408); experiment: Radiolabeled enzyme assay PDE2; format: biochemical; details: read-out: % inhibition at 30 μM, 1.01 μM [3H]cAMP+cAMP
T3 construct: PDE2 (Human platelets); from tissue; host or cells: human platelets
T3 sequence (O00408 whole entry): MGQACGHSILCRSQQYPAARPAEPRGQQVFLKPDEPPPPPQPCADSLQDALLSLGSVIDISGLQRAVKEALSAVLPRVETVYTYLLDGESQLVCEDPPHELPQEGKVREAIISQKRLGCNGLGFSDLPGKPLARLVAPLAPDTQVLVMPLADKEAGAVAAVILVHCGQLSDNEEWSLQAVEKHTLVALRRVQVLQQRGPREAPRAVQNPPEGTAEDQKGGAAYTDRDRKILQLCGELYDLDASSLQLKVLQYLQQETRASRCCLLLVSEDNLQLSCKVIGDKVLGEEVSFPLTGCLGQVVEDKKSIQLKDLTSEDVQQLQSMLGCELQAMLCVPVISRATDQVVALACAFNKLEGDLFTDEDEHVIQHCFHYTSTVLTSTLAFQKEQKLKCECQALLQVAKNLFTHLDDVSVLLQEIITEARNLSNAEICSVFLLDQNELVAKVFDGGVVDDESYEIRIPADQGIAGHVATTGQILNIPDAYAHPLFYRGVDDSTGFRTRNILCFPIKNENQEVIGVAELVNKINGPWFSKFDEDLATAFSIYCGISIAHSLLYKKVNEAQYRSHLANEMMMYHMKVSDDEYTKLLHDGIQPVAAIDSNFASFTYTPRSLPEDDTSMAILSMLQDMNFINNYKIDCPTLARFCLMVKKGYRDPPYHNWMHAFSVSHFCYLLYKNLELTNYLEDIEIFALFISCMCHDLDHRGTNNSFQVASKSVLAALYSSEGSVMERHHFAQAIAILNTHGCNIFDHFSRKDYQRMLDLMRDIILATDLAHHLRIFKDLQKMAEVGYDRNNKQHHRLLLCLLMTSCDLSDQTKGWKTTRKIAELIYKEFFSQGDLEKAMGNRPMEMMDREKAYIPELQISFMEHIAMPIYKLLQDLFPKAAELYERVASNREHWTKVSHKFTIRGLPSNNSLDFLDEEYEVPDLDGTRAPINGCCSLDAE
Description: as §5

PDE7A, sequence (Q13946 whole entry, species assumed): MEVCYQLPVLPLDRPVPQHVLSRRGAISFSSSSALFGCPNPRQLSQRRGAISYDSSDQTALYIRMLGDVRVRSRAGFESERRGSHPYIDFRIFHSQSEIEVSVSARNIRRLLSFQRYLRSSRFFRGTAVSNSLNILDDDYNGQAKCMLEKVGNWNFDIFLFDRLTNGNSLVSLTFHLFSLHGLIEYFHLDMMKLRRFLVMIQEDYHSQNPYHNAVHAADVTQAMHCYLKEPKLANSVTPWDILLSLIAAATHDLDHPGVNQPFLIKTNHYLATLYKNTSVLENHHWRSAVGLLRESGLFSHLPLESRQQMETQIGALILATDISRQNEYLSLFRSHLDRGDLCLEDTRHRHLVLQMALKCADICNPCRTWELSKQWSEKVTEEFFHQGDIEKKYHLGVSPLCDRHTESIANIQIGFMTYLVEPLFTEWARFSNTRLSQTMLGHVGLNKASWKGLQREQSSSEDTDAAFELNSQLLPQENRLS

O=C(Nc1ncc([N+](=O)[O-])s1)c1ccccc1O [Tizoxanide]
IC50 (PDE7A): 134 µM | IC50 (PDE4B): > 500 µM | IC50 (PDE5A): 136 µM | Human TNF-α concentration (Human TNF-α; 1 μM): 5351 pg/mL | Human TNF-α concentration (Human TNF-α; 10 μM): 3244 pg/mL | Human TNF-α concentration (Human TNF-α; 25 μM): 3489 pg/mL | Human TNF-α concentration (Human TNF-α; 50 μM): 2440 pg/mL | Human IL-22 concentration (Human IL-22; 1 μM): 7858 pg/mL | Human IL-22 concentration (Human IL-22; 10 μM): 1189 pg/mL | Human IL-22 concentration (Human IL-22; 25 μM): 280 pg/mL | Human IL-22 concentration (Human IL-22; 50 μM): 0 pg/mL | IC50 (PDE4C): 366 µM | Human IFN-γ concentration (Human IFN-γ; 1 μM): 204 pg/mL | Human IFN-γ concentration (Human IFN-γ; 10 μM): 111 pg/mL | Human IFN-γ concentration (Human IFN-γ; 25 μM): 139 pg/mL | Human IFN-γ concentration (Human IFN-γ; 50 μM): 191 pg/mL

CC(=O)Oc1ccccc1C(=O)Nc1ncc([N+](=O)[O-])s1 [Nitazoxanide]
% inhibition of Ear inflamn. ([1]; 3% topical): −5.9% | Histopathology Scores Epidermal Thickness ([1]; 3% topical): 5.6 ± 0.4 | Histopathology Scores Hyperkeratosis ([1]; 3% topical): 1.0 ± 0.0^$ | Histopathology Scores Rete Peg Prolifern. ([1]; 3% topical): 1.2 ± 0.2 | PASI score ([1]; 3% topical): 14.2 ± 5.1 | Spleen weight ([1]; 3% topical, Day 9): 203.6 ± 22.6 mg | IL23 Levels (pg/ml) ([1]; 3% topical): 147.79^# pg/ml | % inhibition of Ear inflamn. ([1]; 4% topical): 26.1% | Histopathology Scores Epidermal Thickness ([1]; 4% topical): 4.7 ± 0.3 | Histopathology Scores Hyperkeratosis ([1]; 4% topical): 1.3 ± 0.2 | Histopathology Scores Rete Peg Prolifern. ([1]; 4% topical): 1.0 ± 0.3 | PASI score ([1]; 4% topical): 21.5 ± 3.4 | Spleen weight ([1]; 4% topical, Day 9): 274.7 ± 54.3 mg | IL23 Levels (pg/ml) ([1]; 4% topical): 128.67* pg/ml | % inhibition of Ear inflamn. ([1]; 5% topical): 40.9% | Histopathology Scores Epidermal Thickness ([1]; 5% topical): 5.3 ± 0.6 | Histopathology Scores Hyperkeratosis ([1]; 5% topical): 1.1 ± 0.1 | Histopathology Scores Rete Peg Prolifern. ([1]; 5% topical): 1.1 ± 0.1 | PASI score ([1]; 5% topical): 13.1 ± 1.6 | Spleen weight ([1]; 5% topical, Day 9): 204.1 ± 15.3 mg | IL23 Levels (pg/ml) ([1]; 5% topical): 89.45* pg/ml | Spleen weight vs disease control (in words) ([1]; Niclosamide 2%, Nitazoxanide 3% and 5%, Clobetasol 0.05%, Day 9): marginal reduction in spleen weight | IL-23 level in ear tissue homogenates (in words) ([1]; different doses): reduction of IL-23 level | Hyperkeratosis (in words) ([1]; ear lobe histopathology): significant reduction in Hyperkeratosis | IC50 (PDE4B): > 500 µM | inhibition at 30 µM (PDE3 (Human platelets)): -4% | % inhibition at 30 μM (PDE1 (Bovine brain)): 18% | % inhibition at 30 μM (PDE4 (Human U937 cells)): 89% | inhibition at 30 µM (PDE5 (Human platelets)): 9% | Human TNF-α concentration (Human TNF-α; 1 μM): 5708 pg/mL | Human TNF-α concentration (Human TNF-α; 10 μM): 3472 pg/mL | Human TNF-α concentration (Human TNF-α; 25 μM): 3679 pg/mL | Human TNF-α concentration (Human TNF-α; 50 μM): 2896 pg/mL | Human IL-22 concentration (Human IL-22; 1 μM): 5612 pg/mL | Human IL-22 concentration (Human IL-22; 10 μM): 1093 pg/mL | Human IL-22 concentration (Human IL-22; 25 μM): 228 pg/mL | Human IL-22 concentration (Human IL-22; 50 μM): 0 pg/mL | Human IFN-γ concentration (Human IFN-γ; 1 μM): 217 pg/mL | Human IFN-γ concentration (Human IFN-γ; 25 μM): 152 pg/mL | Human IFN-γ concentration (Human IFN-γ; 50 μM): 191 pg/mL | inhibition at 30 µM (PDE2 (Human platelets)): 13%
